The subject of data set [1] is panel of cultured human cell lines. Nature of the data set: Neutral red growth inhibition, panel of cultured human cell lines. Type of data set: cell-based. To be noted: five days continuous treatment, read-out: GI50 calculated for all cell lines. How it is done:
Compound B's activity is not confined to activity against colon cancer cell lines or animal models of colon cancer. It has a broad range of anti-neoplastic effects in various neoplastic cell lines. Various types of human cancer cell lines were propagated under sterile conditions in RPMI 1640 medium with 10% fetal bovine serum, 2 mM L-glutamine and sodium bicarbonate. To determine growth inhibitory effects of Compound B, cells were seeded in 96-well plates at a density of 1000 cells per well. Twenty-four hours after plating, the cells were dosed with various concentrations of the free base of Compound B solubilized in DMSO (final concentration 0.1%). The effect of the drug on tumor cell growth was determined using the neutral red cytotoxicity assay following five days of continuous treatment. Neutral red is a dye that is selectively taken up by viable cells by an ATP-dependent transport mechanism.

The test system of data set [2] is SW-480 colon adenocarcinoma cells. The data set can be described thus: DNA fragmentation (Cell Death Detection ELISA). It is filed as cell-based, human. How it is done:
Samples are then analyzed.
(ELISA stands for enzyme-linked immunosorbent assay.)

The test system is the same in data set [3]. Nature of the data set: Apoptosis induction determined by morphology. It is filed as cell-based, human. An excerpt: Apoptosis occurs naturally during normal tissue turnover and during embryonic development of organs and limbs. Apoptosis also is induced by cytotoxic T-lymphocytes and natural killer cells, by ionizing radiation and by certain chemotherapeutic drugs. Inappropriate regulation of apoptosis is thought to play an important role in many pathological conditions including cancer, AIDS, or Alzheimer's disease, etc. Compounds can be screened for induction of apoptosis using cultures of tumor cells maintained under conditions as described above. Treatment of cells with test compounds involves either pre- or post-confluent cultures and treatment for two to seven days at various concentrations. Apoptotic cells are measured in both the attached and “floating” compartments of the cultures. Both compartments are collected by removing the supernatant, trypsinizing the attached cells, and combining both preparations following a centrifugation wash step (10 minutes, 2000 rpm). The protocol for treating tumor cell cultures with sulindac and related compounds to obtain a significant amount of apoptosis has been described in the literature. (See, Piazza, G. A., et al., Cancer Research, 55:31 10-16, 1995, which is incorporated herein by reference). The novel features include collecting both floating and attached cells, identification of the optimal treatment times and dose range for observing apoptosis, and identification of optimal cell culture conditions.
Following treatment with a compound, cultures can be assayed for apoptosis and necrosis by florescent microscopy following labeling with acridine orange and ethidium bromide. The method for measuring apoptotic cell number has previously been described by Duke & Cohen, “Morphological And Biochemical Assays Of Apoptosis,” Current Protocols In Immunology, Coligan et al., eds., 3.17.1-3.17.16 (1992, which is incorporated herein by reference).
For example, floating and attached cells can be collected by trypsinization and washed three times in PBS. Aliquots of cells can be centrifuged. […]

Data set [4] relates to PKG in SW480 colon cancer cells. The data set can be described thus: PKG assay of drug-treated cell lysates (GST-cGB-PDE5 solid phase substrate). Particulars: 48 hrs, exisulind 200, 400, 600 μM, E4021 0.1, 1, 10 μM, with and without added cGMP. Type of data set: cell-based, human. As to the method: To test the effect of cGMP-specific PDE inhibition on neoplasia containing the APC mutation, SW480 colon cancer cells were employed. SW 480 is known to contain the APC mutation. About 5 million SW480 cells in RPMI 5% serum are added to each of 8 dishes:
2-10 cm dishes—30 μL DMSO vehicle control (without drug),
3-10 cm dishes—200 μM, 400 μM, 600 μM exisulind in DMSO, and
The dishes are incubated for 48 hrs at 37° C. in 5% CO2 incubator.
The liquid media are aspirated from the dishes (the cells will attach themselves to the dishes). The attached cells are washed in each dish with cold PBS, and 200 μL cell lysis buffer (i.e., 50 mM Tris-HCl, 1% NP-40, 150 mM NaCl, 1 mM EDTA, 1 mM Na3VO4, 1 mM NaF, 500 μM IBMX with proteinase inhibitors) is added to each dish. Immediately after the cell lysis buffer is added, the lysed cells are collected by scraping the cells off each dish. The cell lysate from each dish is transferred to a microfuge tube, and the microfuge tubes are incubated at 4° C. for 15 minutes while gently agitating the microfuge tubes to allow the cells to lyse completely. […]
For each control or drug cell lysate sample to be evaluated, the reaction is started by adding phosphorylation buffer containing 10 μCi ^32P-γ-ATP solution (200 μM ATP, 4.5 mM MgCl; 5 mM KH2PO4; 5 mM K2HPO4;) to each mixture. […]

Data set [5] in a line: Safety evaluation in exisulind clinical trials. It is filed as in vivo. As to the method:
In these exisulind trials and several others involving the drug in other indications, safety was evaluated by monitoring adverse events (AEs), clinical laboratory tests (hematology, serum chemistry, and urinalysis), vital signs (blood pressure, pulse rate, respiratory rate, temperature, and weight), physical examination, and upper endoscopy.

As a reminder, the GI50 is the concentration giving 50% growth inhibition. For orientation: pEC50 means −log10 of the EC50, conventionally taken in molar units. Read a high pEC50 as a small EC50.

pEC50: −log10 of the molar value.

Turning to `CC1=C(CC(=O)NCc2ccccc2)c2cc(F)ccc2/C1=C\c1ccncc1.Cl` [Compound B, (Z)-5-fluoro-2-methyl-(4-pyridylidene)-3-(N-benzyl)indenylacetamide hydrochloride], the GI50 in data set [1] is 1 to 2 µM. In addition, the negative logarithm of the EC50 (pEC50) in data set [2] was 4.82. For the same molecule, the “% Apoptosis” value turned out to be 16% in data set [3] (0.35 μM), 27% in data set [3] (0.7 μM) and 88% in data set [3] (1.5 μM).
In the case of `CC1=C(CC(=O)O)c2cc(F)ccc2/C1=C\c1ccc(S(C)(=O)=O)cc1` [exisulind, 5-fluoro-2-methyl-1-(p-methylsulfonylbenzylidene)-3-indenylacetic acid], the “PKG activity relative to control” value in data set [4] is given as “causes PKG activity to increase in a dose-dependent manner”. Further, the “safety findings in clinical trials” value in data set [5] (human, in vivo) is “No outstanding safety issues have been demonstrated”. The “maximum tolerated dose (MTD)” value in data set [5] (patients with intact colons) turned out to be 400 mg; in data set [5] (patients with subtotal colectomy), 600 mg; in data set [5] (pediatric patients) it was 350 mg.

Source of the values: patent US6569638B1, “Method for screening compounds for the treatment of neoplasia” (Cell Pathways, Inc, priority 2000, dated 2003).
